Test results reported in patent US10022422B2, “Peptidomimetic macrocycles” (priority 2009, dated 2018).
Where a SMILES comes first, the peptide text is derived from it. Bridges are numbered along the chain shown (N, C = ends). [ ]: non-standard residue; d: D form. R8 = C=CCCCCCC[C@@](C)(N)C(=O)O; S5 = C=CCCC[C@](C)(N)C(=O)O; Nle = CCCC[C@H](N)C(=O)O; Aib = CC(C)(N)C(=O)O

Test: Figure 6
Parameters: AUC,all / AUC,inf: concentration or dose not given beside the values
Source text: Table printed on a drawing sheet, Figure 6
First reader's note: The head SP-2 is printed shifted to the left of its column of values.

| SMILES | AUC,all [ng·h/mL] | AUC,inf [ng·h/mL] | Cl [mL/min/kg] | Cmax, obs [ng/mL] | MRT [h] | T1/2 [h] | Vss [L/kg] |
| --- | --- | --- | --- | --- | --- | --- | --- |
| CCCC[C@H](NC(C)=O)C(=O)N[C@@H](CC(=O)O)C(=O)N[C@H](C(=O)N[C@@H](CC(N)=O)C(=O)N1CCC[C@H]1C(=O)N[C@H](C(=O)N[C@@H](CC(C)C)C(=O)N[C@@]1(C)CCCC=CCCC[C@@](C)(C(=O)N[C@@H](C)C(=O)N[C@@H](C)C(=O)N[C@@H](CCC(N)=O)C(N)=O)NC(=O)[C@H](CCCCN)NC(=O)[C@H](CC(C)C)NC(=O)[C@H](Cc2ccccc2)NC1=O)[C@@H](C)O)C(C)C [SP-10, Ac-NleDVNPTL$FLK$AAQ-NH2] (Ac-[Nle]DVNPTL[S5]FLK[S5]AAQ-NH2; staple 8-12) | 5770 | 5800 | 8.85 | 11408 | 0.55 | 0.56 | 0.29 |
| CCCC[C@H](NC(C)=O)C(=O)N[C@@H](CC(=O)O)C(=O)N[C@H](C(=O)N[C@@H](CC(N)=O)C(=O)N1CCC[C@H]1C(=O)N[C@H](C(=O)N[C@@H](CC(C)C)C(=O)N[C@@H](CC(C)C)C(=O)N[C@@H](Cc1ccccc1)C(=O)N[C@@]1(C)CCCC=CCCC[C@@](C)(C(=O)N[C@@H](CCCNC(=N)N)C(N)=O)NC(=O)[C@H](C)NC(=O)[C@H](C(C)C)NC(=O)[C@H](CCCCN)NC1=O)[C@@H](C)O)C(C)C [SP-11, Ac-NleDVNPTLLF$KVA$R-NH2] (Ac-[Nle]DVNPTLLF[S5]KVA[S5]R-NH2; staple 10-14) | 9065 | 9100 | 5.67 | 18748 | 0.52 | 0.54 | 0.178 |
| CCCC[C@H](NC(C)=O)C(=O)N[C@@H](CC(=O)O)C(=O)N[C@H](C(=O)N[C@@H](CC(N)=O)C(=O)NC(C)(C)C(=O)N[C@H](C(=O)N[C@]1(C)CCCCCCC=CCCC[C@@](C)(C(=O)N[C@@H](CCCNC(=N)N)C(N)=O)NC(=O)[C@H](C)NC(=O)[C@H](C(C)C)NC(=O)[C@H](CCCCN)NC(=O)[C@H](CC(C)C)NC(=O)[C@H](Cc2ccccc2)NC(=O)[C@H](CC(C)C)NC1=O)[C@@H](C)O)C(C)C [SP-15, Ac-NlcDVNAibT$r8LFLKVA$R-NH2] (Ac-[Nle]DVN[Aib]T[R8]LFLKVA[S5]R-NH2; staple 7-14) | 23300 | 25410 | 1.97 | 26524 | 1.92 | 1.49 | 0.226 |

Test: not given

| SMILES | AUC,inf [ng·h/mL] | AUC,last [ng·h/mL] | Cl [mL/min/kg] | MRT [h] | T1/2 [h] | Vss [L/kg] |
| --- | --- | --- | --- | --- | --- | --- |
| CCCC[C@H](NC(C)=O)C(=O)N[C@@H](CC(=O)O)C(=O)N[C@H](C(=O)N[C@@H](CC(N)=O)C(=O)NC(C)(C)C(=O)N[C@H](C(=O)N[C@@H](CC(C)C)C(=O)N[C@@H](CC(C)C)C(=O)N[C@@H](Cc1ccccc1)C(=O)N[C@@]1(C)CCCC=CCCC[C@@](C)(C(=O)N[C@@H](CCC(N)=O)C(N)=O)NC(=O)[C@H](C)NC(=O)[C@H](C(C)C)NC(=O)[C@H](CCCCN)NC1=O)[C@@H](C)O)C(C)C (single isomer, unassigned) [SP-8 IV Dose] | 46700 | 46600 | 1.05 | 2 | 1 | 0.105 |
| CCCC[C@H](NC(C)=O)C(=O)N[C@@H](CC(=O)O)C(=O)N[C@H](C(=O)N[C@@H](CC(N)=O)C(=O)NC(C)(C)C(=O)N[C@H](C(=O)N[C@@H](CC(C)C)C(=O)N[C@@H](CC(C)C)C(=O)N[C@@H](Cc1ccccc1)C(=O)N[C@@]1(C)CCCC=CCCC[C@@](C)(C(=O)N[C@@H](CCC(N)=O)C(N)=O)NC(=O)[C@H](C)NC(=O)[C@H](C(C)C)NC(=O)[C@H](CCCCN)NC1=O)[C@@H](C)O)C(C)C (single isomer, unassigned) [SP-8 Subcutaneous] | 10200 | 9690 | 4.58 | 13 | 10 | 3.629 |
